Laboratory results reported in patent US20230096602A1, “TETRAHYDROCYCLOPENTA[B]INDOLE COMPOUNDS FOR TREATMENT OF RENAL DISEASE” (Eirgen Pharma Ltd., priority 2020, published 2023).

How the values were obtained:
[1] = tested on: orchidectomized (ORX) rats; experiment: Testosterone induced prostate and seminal vesicle growth in delayed ORX rat model; format: in vivo; conditions: for seminal vesicle wet weights Abs(Dif)-LSD / prostate weights Abs(Dif)-LSD: Dunnett
Text: (§1) Orchidectomized (ORX) and sham-operated Wistar male rats were used (orchidectomized at 8 weeks of age and allowed to waste for 4 weeks). […] Rats were randomized and placed into treatment groups (n=6) based on body weight. Route of administration for all groups except testosterone enanthate (TE was given sub-cutaneously) was oral. At the end of 2 weeks of daily rats were euthanized, weighed & tissue harvested. Levator ani, prostates, and seminal vesicles were collected from each animal. Results are plotted as means±SE.

ER, GR, PR MR = experiment: Binding to other nuclear hormone receptors; conditions: selectivity
[2] = tested on: orchidectomized (ORX) rats; experiment: Levator ani muscle in delayed ORX rat model; format: in vivo; conditions: for levator ani W/BW Mean: delayed ORX rat
Text: Results are plotted as means±SE.
Following the androgen deficiency in the ORX model, the Levator ani- and bulbocavernous muscle weights decreased in size.

[3] = tested on: orchidectomized (ORX) rats; experiment: Bone effects in osteopenic ORX rat model; conditions: in vivo
rat uterus = experiment: Rat uterine risk; format: in vivo
[4] = tested on: orchidectomized (ORX) rats; experiment: Prostate and seminal vesicle weight in ORX rat model
Text: as §1

[5] = Margin of safety (AUC), dog; format: in vivo
[6] = Margin of safety (AUC), cat as printed; format: in vivo; conditions: cat (so in the source)
LnCAP cells = experiment: LnCAP gene expression; format: cell-based, human; conditions: CLUSTERIN
dog prostate = experiment: Dog toxicology: prostate weight and atrophy; format: in vivo
healthy subjects [7] = experiment: Study GPBA QTcF concentration-response analysis; format: in vivo, human; conditions: concentrations found with doses of 250 mg or greater
Description: At TT701 concentrations found with doses of 250 mg or greater, the mean QTcF prolongation was greater than 10 msec. The risk for clinically significant QT prolongation at doses <250 mg can be excluded.

healthy subjects [8] = experiment: Study GPBC multiple-dose 28 days; format: in vivo, human; conditions: 1 mg to 75 mg daily dose for 28 days
[9] = tested on: patients with ED who had an incomplete response to tadalafil; experiment: Study GPEC phase 2, 12 weeks; format: in vivo, human; conditions: for Change in Fat Mass (%) (week 12) / Change in Lean Body Mass (%) (week 12): 5 mg
Text: The Phase 2 Study for ED also included exploratory measures for lower extremity muscle strength and power, LBM and fat mass.

[10] = tested on: male subjects with LUTS secondary to BPH; experiment: Study SAR-202 phase 2, 16 weeks; format: in vivo, human
[11] = tested on: patients with androgen deficiency; experiment: Clinical studies in patients with androgen deficiency; format: in vivo, human; conditions: any dose level (up to 75 mg doses)
Text: The exact effect of this decrease in testosterone levels on androgen related anabolic and prostate effects is not known, but may be dependent on the base levels of testosterone.

[12] = Human PK, single and repeated doses; format: in vivo
Text: The human pharmacokinetics (PK) of OPK-88004 was investigated following single and repeated doses. Following tmax, OPK-88004 concentrations appear to decline in a biexponential fashion characterized by a short distribution phase and a long terminal phase. Exposure appears to increase approximately dose proportionally in the clinical dosing range. Steady state was achieved within 28 days of dosing. […] These therapeutic benefits of more controlled exposure may result in improved LBM and physical/muscle strength preservation, physical function improvement and muscle wasting prevention. OPK-88004 bioexponential PK profile is important for the optimization of side effect benefit/risk ratio in special populations including dialysis patients.

clinical study subjects = experiment: Clinical safety assessment across studies; format: in vivo, human; conditions: phase 2 study
healthy subjects [13] = conditions: healthy volunteers, any time point or dose; data of WO 2016040234; cited from earlier work
[14] = ORX + TE, 1 mg/kg/d + Example 1, 3 mg/kg/d vs ORX + TE
[15] = ORX + TE, 1 mg/kg/d + Example 1, 10 mg/kg/d vs ORX + TE
[16] = ORX + TE, 1 mg/kg/d + Example 1, 30 mg/kg/d vs ORX + TE
[17] = baseline testosterone <340 ng/dL
[18] = baseline testosterone ≥340 ng/dL

CCCCCCC(=O)O[C@H]1CC[C@H]2[C@@H]3CCC4=CC(=O)CC[C@]4(C)[C@H]3CC[C@]12C [Testosterone Enanthate, reference compound]
prostate weight and seminal vesical weight ([1]; orchidectomized rats, 1 mg/k/d alone, 2 weeks): increase

CC(C)OC(=O)N[C@H]1Cc2c(n(Cc3ccccn3)c3ccc(C#N)cc23)C1 [compound of Formula II, (S)-(7-cyano-4-pyridin-2-ylmethyl-1,2,3,4-tetrahydro-cyclopenta[b]indol-2-yl)-carbamic acid isopropyl ester]
binding affinity for hAR compared to other nuclear hormone receptors (ER, GR, PR MR): > 500 fold
levator ani W/BW Mean ([2]; 8 weeks, dose 1): 0.2749 mg/g
levator ani W/BW Mean ([2]; 8 weeks, dose 3): 0.2575 mg/g
levator ani W/BW Mean ([2]; 8 weeks, dose 10): 0.3237 mg/g
levator ani W/BW Mean ([2]; 8 weeks, dose 20): 0.325 mg/g
Muscle LA ED mg/kg ([2]; rat): 3 mpk
Bone Eff (BM) [3]: 2 mpk
Rat uterine risk (rat uterus): 20 mpk
prostate or seminal vesical weights ([4]; delayed ORX rats, 2 or 8 weeks, increasing doses up to 20-30 mg/kg): no effect
changes in the prostate ([4]; orchidectomized rats, 30 mg/kg, highest dose examined): did not induce changes
Rat SV/Prost risk mgs/kg ([4]; rat): >30 mpk
MOS (AUC) [5]: 28 X
MOS (AUC) [6]: 71 X
EC50 (LnCAP cells): > 100 nM
decreases of prostate weight (dog prostate; dogs, by 3 months (so in the source)): 60-75%
progressive decrease in prostate size (dog prostate; normal dogs, six-month treatment period): 60%
seminal vesicle wet weights Abs(Dif)-LSD ([1]; ORX + Example 1, 10 mg/kg/d (no TE) vs ORX + TE): 1.411
prostate weights Abs(Dif)-LSD [1, 14]: −0.11
seminal vesicle wet weights Abs(Dif)-LSD [1, 14]: −0.34
prostate weights Abs(Dif)-LSD [1, 15]: 0.036
seminal vesicle wet weights Abs(Dif)-LSD [1, 15]: 0.078
prostate weights Abs(Dif)-LSD [1, 16]: 0.025
seminal vesicle wet weights Abs(Dif)-LSD [1, 16]: 0.536
prostate weight and seminal vesical weights normalized to body weight ([1]; TE 1 mg/kg/d + 3, 10 and 30 mg/kg/d, 2 weeks, compared to TE alone): decreasing
mean QTcF prolongation (healthy subjects [7]): greater than 10 msec
PSA test, effect on the prostate (healthy subjects [8]): neutral to negative effect
Change in Fat Mass (%) (week 12) [9, 17]: −1.85%
Change in Lean Body Mass (%) (week 12) [9, 17]: 1.60%
Change in Fat Mass (%) (week 12) [9, 18]: −0.95%
Change in Lean Body Mass (%) (week 12) [9, 18]: 0.88%
Hematocrit ([9]; 12 weeks (FIG. 11)): no change
Change in Fat mass (kg) (week 16) ([10]; 15 mg, 16 weeks): -1.47 kg
Change in Fat mass (kg) (week 16) ([10]; 25 mg, 16 weeks): -1.49 kg
Change in Lean Body Mass (kg) (week 16) ([10]; 25 mg, 16 weeks, listed as OPK-88008): 1.96 kg
Change in Prostate Specific Antigen (week 16 to baseline) ([10]; 25 mg, listed as OPK-88008): −15.44 (p = 0.006)
PSA [11]: No increases
Accumulation with multiple dosing ([12]; in vivo): up to 2.5 fold
time to steady state ([12]; repeated dosing): ≤ 28 days
transient abnormal AST or ALT level (clinical study subjects; one subject): > 3 ×ULN
transient abnormal AST or ALT level (clinical study subjects; two subjects): > 2 ×ULN
prostate specific antigen (PSA) levels, changes from baseline vs placebo (healthy subjects [13]): no significant changes

B1: PTH: PTH 10 comparator group in the delayed ORX rat model, Table 7 (peptide, UniProt P01270 32-115, looked up)
Parathyroid hormone: SVSEIQLMHNLGKHLNSMERVEWLRKKLQDVHNFVALGAPLAPRDAGSQRPRKKEDNVLVESHEKSLGEADKADVNVLTKAKSQ
modifications: Parathyroid hormone
levator ani W/BW Mean ([2]; PTH 10 (head: ug/kg/d)): 0.1665 mg/g
